From patent US9968716B2, “Drug-eluting stent graft” (Ono Pharmaceutical Co., Ltd., priority 2013, dated 2018)
Marks after values point to notes of the source that are not given here.

What was measured:
NHDFs and HUVECs = assay: Induction of internal regenerating factors in co-culture with NHDFs and HUVECs; assay type: cell-based, human
[1] = test system: normal human aortic smooth muscle cells (AoSMCs); assay: Promotion of cAMP production in AoSMC culture; assay type: cell-based; details: Ao-SMCs, 72 hours of culture
Procedure: Cells (produceed by Lonza, purchased from Takara Bio Inc., product name: normal human aortic smooth muscle cells (AoSMCs), product code: CC-2571) were cultured in a medium (produced by Lonza, purchased from Takara Bio Inc., product name: smooth muscle cell medium kit-2 (5% FBS), SmGM™-2 Bullet Kit™, product code: CC-3182) for 72 hours. To the culture medium at the number of cells of 4.0×10^5 cells which was rendered to be serum free, Compound 1 dissolved in DMSO was added so as to be 100 nM or 1000 nM. As a control, the same amount of DMSO was added to the culture medium. After 72 hours of culture, the supernatant was recovered and cAMP in the culture medium was measured with the cAMP EIA kit Code. 581001.

## O=C(O)COc1cccc2c1CCC=C2CCO/N=C(\c1ccccc1)c1cccnc1 [Compound 1, (E)-[5-[2-[1-phenyl-1-(3-pyridyl)methylidenaminoxy]ethyl]-7,8-dihydronaphthalen-1-yloxy]acetic acid]
NHDFs and HUVECs
  induction of internal regenerating factors (HGF, VEGF, EGF, IGF-1, SDF-1, G-CSF): induce
[1]; 100 nM
  cAMP in the culture medium, Average: 50.6* nM
[1]; 1000 nM
  cAMP in the culture medium, Average: 105.4* nM
